# Assay results reported in publication PMC7821884, “BRAF inhibition protects against hearing loss in mice” (Science Advances, 2020).
# Columns and labels:
# HEI-OC1 cell line = assay: Caspase-Glo 3/7 activity screen for protection from cisplatin-induced cell death; assay type: cell-based, mouse; settings: Mus musculus; HEI-OC1, 50 μM cisplatin, 22 hours
# Procedure: An unbiased screen for compounds protective against cisplatin ototoxicity ([12], [13]) was conducted using the immortalized inner ear cell line HEI-OC1 derived from mouse cochlea ([14]). One hundred sixty-two unique small-molecule kinase-specific inhibitors were screened in dose-response mode for protection from 50 μM cisplatin. A caspase-3/7 activity assay was selected to measure apoptosis using a protocol that quantifies a luminescent product derived from the cleavage of caspase-3/7 substrate (Caspase-Glo 3/7 reagent). One hundred percent luminescence was defined by cells treated with cisplatin alone, and 0% was defined by untreated cells (Fig. 1A, fig. S1, table S1, and dataset in the Supplementary Materials).
# In these screens, caspase-3 cleavage was chosen as the end point indicating cisplatin-induced apoptosis, because it allowed the inhibition of cell death to be monitored at the level of any molecular target upstream of caspase-3 cleavage in the HEI-OC1 cell line. Cells were plated at a previously optimized concentration of 1600 cells per well in medium without γ-interferon to limit proliferation and tested against 50 μM cisplatin based on a previous dose–response curve. Tested compounds were dissolved in DMSO before addition to medium with a final DMSO concentration of <0.5%. The screens are described in detail in our previous publications ([12], [13]). […]
# HEI-OC1 cells = assay: Cell Titer-Glo cell viability assay, compound alone; assay type: cell-based; settings: all concentrations tested
# Source text: All compounds were further characterized via Cell Titer-Glo cell viability assay to determine toxicity of the compound alone in HEI-OC1 cells (table S1 and dataset in the Supplementary Materials). […] The other BRAF inhibitors had similar IC50 in the micromolar range and were nontoxic to cells (table S1).
# In these screens, caspase-3 cleavage was chosen as the end point indicating cisplatin-induced apoptosis, because it allowed the inhibition of cell death to be monitored at the level of any molecular target upstream of caspase-3 cleavage in the HEI-OC1 cell line. Cells were plated at a previously optimized concentration of 1600 cells per well in medium without γ-interferon to limit proliferation and tested against 50 μM cisplatin based on a previous dose–response curve. Tested compounds were dissolved in DMSO before addition to medium with a final DMSO concentration of <0.5%. The screens are described in detail in our previous publications ([12], [13]). […] Pifithrin-α was added to each plate as a screening quality control. The linearity of the Caspase-Glo 3/7 (Promega) assay, which enables the measurement of light emitted as a result of caspase-3/7 cleavage and is suitable for HTS, was validated, and it was verified that 0.5% DMSO had no effect on the cell death kinetics. Compounds were screened in triplicate at final concentrations ranging from 1 nM to 85 μM and incubated for 22 hours. […]
# P42 FVB mice = assay: Cisplatin-induced hearing loss in adult mice (ABR, OHC counts, pERK)
# Procedure: As described in Fig. 4A, baseline auditory brainstem response (ABR) thresholds for P42 FVB mice were established 1 week before experimental procedures. […] Animals were allowed 21 days after cisplatin injection to recover, and final ABR thresholds were recorded.
# Ten milligrams of cisplatin (479306, Sigma-Aldrich) powder was dissolved in 10 ml of sterile saline (0.9% NaCl) at 37°C for 40 to 60 min. Cisplatin was administered to FVB mice at 30 mg/kg via intraperitoneal injection. One day before cisplatin injection, mice received 1 ml of saline by subcutaneous injection. To ameliorate dehydration after cisplatin injection, 1 ml of warm saline was injected twice per day for at least 7 days or until body weight started to recover. The cages of cisplatin-treated mice were placed on the heating pad for at least 7 days or until body weight began to recover. Fresh mush food was daily given for at least 7 days.
# Compounds were dissolved in a mixture of 10% DMSO, 5% Tween 80 (P1754, Sigma-Aldrich), 40% PEG-E-300 (91462-1KG, Sigma-Aldrich), and 45% 0.9% saline.
# ABR in mice was measured for left ears as described previously with minor modifications ([13], [34]). In brief, ABR waveforms were recorded in a sound booth (Industrial Acoustic Company) by using subdermal needles positioned in the skull, below the pinna, and at the base of the tail, and the responses were fed into a low-impedance Medusa digital biological amplifier system (RA4L; TDT; 20-dB gain). At each frequency, the stimulus intensity was reduced from 90 to 0 dB in 10-dB steps to determine the threshold decibel SPL when the electrical response was just above the noise floor. ABR waveforms were averaged in response to 500 tone bursts. The recorded signals were filtered by a band-pass filter from 300 Hz to 3 kHz. Pretreatment ABR recordings of adult FVB mice (aged 6 weeks) were acquired 1 week before all treatments, and posttreatment ABR measurements were recorded 21 days after cisplatin treatment or 14 days after noise exposure. ABR threshold was determined by the presence of any of three or more of the five waveform peaks. […] All thresholds and shifts were determined independently by two experimenters for each mouse. Individual ABR wave 1 amplitudes were measured as the difference between the positive peak and the following negative trough.
# Cochleae from adult mice were prepared and examined as described previously ([85], [86]). All images were acquired with a confocal microscope (LSM 700 or 710, Zeiss). Samples were stained with phalloidin (A12379 or A12380, Invitrogen) or with antibodies for other markers. The following primary antibodies were used: anti–myosin VI (1:400; 25-6791; Proteus Bioscience), anti–myosin VIIa ([…];138-1-s, Developmental Studies Hybridoma Bank), anti-Tuj1 (1:250; 801201, BioLegend), anti-pERK (1:400; 9101S, Cell Signaling Technology), or anti-Ctbp2 (1:500; 612044, BD Transduction). Anti-rabbit Alexa Fluor 488 (1:400; A11034) and anti-mouse Alexa Fluor 647 (1:400; A31571) secondary antibodies were purchased from Invitrogen. ProLong gold antifade reagent with 4′,6-diamidino-2-phenylindole (P36941, Invitrogen) was used to counterstain nuclei.
smiles,measurement,setting,value
CC(C)(C)c1nc(-c2cccc(NS(=O)(=O)c3c(F)cccc3F)c2F)c(-c2ccnc(N)n2)s1 [dabrafenib],IC50,HEI-OC1 cell line,13.5 µM
same,"toxicity of the compound alone, cell viability assay",HEI-OC1 cells,nontoxic
same,ERK phosphorylation in cochlear SCs after cisplatin,"P42 FVB mice; 100 mg/kg 45 min pretreatment, 1 hour after cisplatin 30 mg/kg i.p.",attenuated
same,protection of ABR threshold at 16 kHz,"P42 FVB mice; 100 mg/kg oral, cisplatin 30 mg/kg i.p.",nearly full protection
same,"loss of OHCs in cochlea, combined with cisplatin","P42 FVB mice; 100 mg/kg oral, cisplatin 30 mg/kg, 8-, 16-, 32-kHz regions",limited
same,"OHC loss, drug alone","P42 FVB mice; 100 mg/kg oral, no cisplatin",No OHC loss
same,whole-body toxicity or ototoxic effects,"P42 FVB mice; 3-day dabrafenib-alone treatment, weight, appearance/behavior, ototoxicity up to 21 days",did not observe whole-body toxicity or ototoxic effects
same,survival rate of mice,"P42 FVB mice; cisplatin 30 mg/kg i.p., alone or combined with dabrafenib",50%
same,crossing of the blood-labyrinth barrier,P42 FVB mice; inferred from effects in mice via oral delivery,crosses the blood-labyrinth barrier
same,ABR wave 1 amplitude at 16 kHz versus cisplatin alone,P42 FVB mice; significant at 90-dB SPL,higher
